Test results as given in patent publication US7605227B2, “Melanoma antigen peptide analogues” (MannKind Corporation, priority 2005, dated 2009).
Entries after “also recorded” stand apart in the source; their conditions may differ.

Columns and labels:
HLA-A*0201 = HLA-A*0201 (Homo sapiens, UniProt P04439, D140Y/D185E/D98H/E176V/E277Q/G131W/G231S/I119V/I121R/I166T/I218V/L300P/L318F/N151K/N90K/P208A/P217A/Q86G/Q94H/R138H/R169H/T345S); assay: iTopia off-rate assay (T1/2); format: binding; conditions: PRAME425-433 and analogs
Protocol: Avidin-coated microtiter plates containing class I monomer loaded with a so-called placeholder peptide were used to evaluate peptide binding, affinity and off-rate. […] Assay buffers, anti-MHC-FITC mAb and beta2-microglobulin and control peptides were also supplied with the kits.
The plates were then incubated on the allele-specific monomer plates at 37° C. The plates were measured at multiple time points (0, 0.5, 1, 1.5, 2, 4, 6 and 8 hrs) for relative fluorescence intensity. The time required for 50% of the peptide to dissociate from the MHC monomer is defined as the T1/2 value (hrs).
The binding and offrate (T1/2) was determined for six native epitopes and their analogs which were designed to enhance the immune response.

[1] = tested on: native epitope coated cells; assay: pCTLR2 prime, PRAME peptide boost, in vivo cytotoxicity (CFSE); design: species or system HHD transgenic mice
PSMA+ A2+ LnCap cells = assay: PSMA immunization, ex vivo cytotoxicity against human tumor cells; format: in vivo, HHD transgenic mice
Protocol: HHD transgenic mice (n=4) were immunized with PSMA288-297 peptide (25 μg in 25 μl of PBS, plus 12.5 μg of pI:C to each lymph node) at day 0, 3, 14 and 17. One week after the boost, splenocytes were stimulated ex vivo with the native PSMA288-297 peptide and tested against ^51Cr-labeled human tumor cells (PSMA^+ A2^+ LnCap cells, or as negative control, LnCap cells coated with MHC class I-blocking antibody) at various E:T ratios.
HHD transgenic mice (n=4) were immunized with plasmid expressing the PSMA288-297 epitope by direct inoculation into the inguinal lymph nodes with 25 μg in 25 μl of PBS to each lymph node at day 0, 3, 14 and 17. This was followed by two peptide boosts (same amount) at day 28 and 31, with the analog I297V. One week after the boost, splenocytes were stimulated ex vivo with the native PSMA288-297 peptide and tested overnight against ^51Cr-labeled human tumor cells (Lncap, A2^+ PSMA^+; or 624.38 A2^+ PSMA^− or control 624.28 cells A2^− PSMA^−) at various E:T ratios.

[2] = tested on: T cells that recognized the PSMA288-297 peptide; assay: Plasmid prime, PSMA peptide boost, IFN-gamma ELISPOT; format: in vivo, HHD transgenic mice; conditions: versus natural peptide boost
Protocol: Two groups of HHD transgenic mice (n=8) were immunized with plasmid expressing PSMA288-297 by direct inoculation into the inguinal lymph nodes with 25 μg in 25 μl of PBS to each lymph node at day 0, 3, 14 and 17. This was followed by two peptide boosts (25 μg) at day 28 and 31 with either the natural peptide or the I297V analog.
Mice were sacrificed at 10 days after the last boost, and splenocytes prepared and assessed for IFN-γ production by ELISPOT analysis. […] At 48 hours after incubation, the assay was developed and the frequency of cytokine-producing T cells that recognized the PSMA288-297 peptide was automatically counted. The data is represented in FIG. 23 as frequency of specific T cells normalized to 0.5 million responder cells (mean of triplicates+SD).

[3] = tested on: T cells that recognized native PSMA288-297 peptide; assay: Peptide immunization with PSMA analogs, IFN-gamma ELISPOT against native peptide; format: in vivo, HHD transgenic mice; conditions: peptide + pI:C intranodal immunization
Protocol: Groups of HHD transgenic mice (n=8) were immunized with peptide (natural epitope PSMA288-297, or analogs bearing substitutions at primary or secondary anchor residues) by direct inoculation into the inguinal lymph nodes, with 25 μg in 25 μl of PBS+12.5 μg of pI:C to each lymph node at day 0, 3, 14 and 17.
Mice were sacrificed at 10 days after the last boost, and splenocytes prepared and assessed for IFN-γ production by ELISPOT analysis. […] At 48 hours after incubation, the assay was developed and the frequency of cytokine-producing T cells that recognized native PSMA288-297 peptide was automatically counted. The data is represented in FIG. 22 as the number of spot forming colonies/well (mean of triplicates±SD). […] To the extent that the poor immunogenicity of the native epitope reflects tolerance, the improved activity of these analogs represents tolerance breaking.

[4] = tested on: T cells specific for the wild-type NY-ESO-1157-165 epitope; assay: Cross-reactivity and functional avidity of NY-ESO-1 157-165 analogs (IFN-gamma); format: cell-based, HHD transgenic mice
From the text: A methodology was devised to allow rapid and rational screening of peptide analogs in a fashion coherent with proposed methods of use and modeling the overall immunologic properties (Kon and Koff relative to MHC interaction and TCR binding properties in an integrated fashion). In some instances, the method included generating T cell lines against a natural (non-mutated) epitope (SSX-241-49), and using an immunization strategy potent enough to generate a useful response in transgenic mice carrying human MHC (such as the A2 allele). Peptide analogs were interrogated ex vivo in the presence of competent APCs and the functional impact of T cells specific for natural (non-mutated) epitopes measured. The evaluation was done at various concentrations of analog, because the expected effect was biphasic in the case of cross reactive peptides (activating at limited concentrations and inhibiting at higher concentrations, due to antigen-induced cell death, AICD). Measurement of the following three parameters were used to define basic and useful characteristics of peptide analogs: • 1. […]
At 7 days after the last boost, the mice were sacrificed and a suspension of splenocytes prepared at 5×10^6 […] cells/ml in complete HL-1 medium. […] The supernatant was harvested and the concentration of IFN-gamma assessed by standard methods such as ELISA. […]

For “S425F: PRAME425-433 analog with Phe for Ser at P1 (FLLQHLIGL) [Peptide S425F]”, the “half time of dissociation” value (HLA-A*0201) was 17.7 h and the “in vivo cytotoxicity against native epitope, in words” value [1] was “capable of expanding the immunity against the native epitope”.

With GLPSIPVHPV [PSMA 288-297(I297V)] the “ex vivo cytotoxicity against PSMA+ human tumor cells, in words” value (PSMA+ A2+ LnCap cells) was “cytotoxic immunity against a PSMA^+ human tumor line; also recorded: effective in mediating cytotoxicity against LNCAP”, the “frequency of native epitope-specific T cells (ELISPOT), in words” value [2] was “considerably higher” and the “IFN-γ ELISPOT response against native epitope, in words” value [3] was “increased priming of immune responses against the native epitope”.

“L158V: NY-ESO-1 157-165 analog with V for L at position 158 (SVLMWITQC; UniProt P78358 157-165, looked up, variant L158V) [Peptide L158V]” was tested, and the “cross-reactivity / activity relative to wild-type, in words” value [4] was “partial retention of activity”.
